Laboratory results as given in PMC3827244, “An Ultrasensitive High Throughput Screen for DNA Methyltransferase 1-Targeted Molecular Probes” (PLoS ONE, 2013).

Assays:
[1] = biological target: T1, DNMT1 (amino acids 621–1616) (Homo sapiens, UniProt P26358); experiment: Validation of HTS hits, endonuclease-coupled DNA methylation assay; assay type: biochemical; design: Percent Activity: concentration or dose not given beside the values; details: for vo (initial velocity): first 12 minutes of GlaI corrected triplicate reaction traces; for Percent Activity: from initial velocity compared to DMSO control; for Normalized RFU: normalized to DMSO control (100) and GlaI control without DNMT1 (0); for RFU: relative fluorescence after 25-minute incubation at 37 °C, 10.9 µM test compound, three replicates
T1 construct: RFTS-lacking DNMT1, amino acids 621–1616; made in house
T1 sequence (P26358 621-1616): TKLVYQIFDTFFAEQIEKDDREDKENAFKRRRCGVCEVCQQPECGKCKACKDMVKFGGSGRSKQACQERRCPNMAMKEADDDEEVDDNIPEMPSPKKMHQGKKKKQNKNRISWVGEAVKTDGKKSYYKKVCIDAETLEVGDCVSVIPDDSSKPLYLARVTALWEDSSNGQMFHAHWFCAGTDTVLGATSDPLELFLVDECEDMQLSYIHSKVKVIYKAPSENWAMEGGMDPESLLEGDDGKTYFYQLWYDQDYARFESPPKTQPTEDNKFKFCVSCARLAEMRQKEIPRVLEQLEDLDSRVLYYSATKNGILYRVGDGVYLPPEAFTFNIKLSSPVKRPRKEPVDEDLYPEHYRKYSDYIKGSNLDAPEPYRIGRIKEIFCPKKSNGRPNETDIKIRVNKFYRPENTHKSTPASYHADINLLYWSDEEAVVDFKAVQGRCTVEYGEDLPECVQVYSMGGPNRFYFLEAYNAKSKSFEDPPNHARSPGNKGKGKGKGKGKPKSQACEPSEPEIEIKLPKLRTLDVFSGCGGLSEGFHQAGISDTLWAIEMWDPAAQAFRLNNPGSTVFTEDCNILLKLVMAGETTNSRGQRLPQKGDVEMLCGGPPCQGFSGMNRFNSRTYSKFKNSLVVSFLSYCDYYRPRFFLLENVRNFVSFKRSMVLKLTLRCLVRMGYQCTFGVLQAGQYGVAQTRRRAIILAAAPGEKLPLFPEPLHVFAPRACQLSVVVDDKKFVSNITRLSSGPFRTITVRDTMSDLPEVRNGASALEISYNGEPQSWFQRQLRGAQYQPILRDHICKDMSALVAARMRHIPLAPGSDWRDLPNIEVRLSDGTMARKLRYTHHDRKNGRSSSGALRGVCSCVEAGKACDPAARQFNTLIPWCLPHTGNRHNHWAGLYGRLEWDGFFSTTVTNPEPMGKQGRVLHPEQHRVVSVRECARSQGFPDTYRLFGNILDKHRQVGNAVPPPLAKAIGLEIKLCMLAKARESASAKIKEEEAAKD
Protocol: DNMT activity was measured at 37°C using a fluorogenic DNA methylation assay. In short, a hemi-methylated hairpin oligonucleotide with a 5′ fluorophore and a 3′ quencher is methylated by addition of a DNMT and the methyl-donating co-factor, S-adenosyl methionine (SAM, HPLC-purified from Sigma). The fully methylated product is a substrate for the restriction endonuclease GlaI (Sibenzyme), which cleaves the oligonucleotide, releasing the fluorophore from the quencher and generating fluorescence. The oligonucleotide substrate (5′-FAM–[…]m[…]mCGmCATAGG-3′-Iowa Black, in which mC denotes 5-methyldeoxycytidylate residues), termed 8006, was synthesized by Integrated DNA Technologies, Coralville, IA. 96 well assays were performed in Co-Star black half-area plates and read in a Biotek Synergy Neo plate reader. 384 well assays were performed in Nunc flat-bottomed black plates and read in a PerkinElmer EnVision plate reader. FAM fluorescence was measured using excitation and emission wavelengths of 485 nm and 520 nm, respectively.
HTS against the Spectrum compound collection (Microsource, Gaylordsville, CT) was performed in eight 384 well plates. Using a Multiflo dispenser (Biotek), 75 µl of assay buffer (10.8 mM Tris-HCl pH 7.5, 1.08 mM MgCl2, 1.08 mM DTT, 108 mM potassium glutamate, 0.108 mg/ml BSA, 10.8 µM SAM, 21.6 nM oligonucleotide 8006, 5.4% glycerol) was dispensed into each well. 1 µl of each compound at 880 µM in DMSO (columns 3–22) or DMSO (columns 1, 2, 23 and 24) was added to assay plates using a Microlab Star liquid handling robot (Hamilton) and the plate was incubated at 37°C for 10 minutes. Following this warming step, 5 µl enzyme solution (either a DNMT1-containing solution of 20 mM Tris-HCl, pH 7.5, 300 mM NaCl, 2 mM DTT, 49 nM DNMT1 (amino acids 621–1616), 0.08 U/µl GlaI, 30% glycerol to columns 2–23 or a GlaI control solution of 20 mM Tris-HCl, pH 7.5, 300 mM NaCl, 2 mM DTT, 0.08 U/µl GlaI, 30% glycerol to columns 1 and 24) was added and the plate was again incubated at 37°C for 25 minutes. […] Each 384 well plate contained two columns of negative (n) and positive (p) controls for inhibitor activity. Columns 2 and 23 were the n controls with DMSO without test compound. Columns 1 and 24 were the p controls without DNMT1. Thus, 320 compounds were assayed per 384 well plate in columns 3–22.
Data across the screen were normalized to the p (0% DNMT1 activity) and n (100% DNMT1 activity) controls on each plate. […] Validation assays (81 µl total volume, identical buffer conditions to those used in the HTS screen) were performed in triplicate in 96 well plates with FAM fluorescence measured over the course of 1 hour. A control containing GlaI in the absence of DNMT1 was subtracted from each assay condition. Corrected assay traces were plotted and compared to DMSO-containing control traces in Prism (GraphPad Software, Inc).

calf thymus DNA = experiment: DNA intercalation assay (ethidium bromide displacement); assay type: binding; details: 10 µM compound, 15 µg/ml ctDNA, 1.5 µM ethidium bromide; DMSO 2370 ± 190
Protocol: DNA intercalation was assessed by examining the ability of the compounds to displace ethidium bromide from calf thymus DNA (ctDNA; Sigma). Duplicate assays (100 µl) were conducted in black 96 well plates and contained 15 µg/ml ctDNA, 1.5 µM ethidium bromide and 10 µM compound in methylation assay buffer. DMSO was used as a negative control and daunorubicin (Sigma) was used as a positive control. Fluorescence was measured using excitation and emission wavelengths of 320 nm and 600 nm, respectively.

HepG2 cells = test system: HepG2 cells; design: method as in PMID 22939515; details: cited from earlier work
[2] = biological target: T1, DNMT1 (amino acids 621–1616); experiment: Concentration-dependence (IC50), endonuclease-coupled DNA methylation assay; assay type: biochemical; details: for IC50: 10 µM SAM, 20 nM oligonucleotide 8006, 2 nM DNMT1, 95% confidence interval in brackets
Protocol: IC50 values for each validated direct inhibitor were determined under identical assay conditions (10 µM SAM and 20 nM oligonucleotide 8006) using the endonuclease-coupled DNA methylation assay in triplicate (80 µl) in a 96 well format. Assays contained 0.8 U GlaI, 2 nM DNMT1 (amino acids 621–1616) and 0.94% DMSO with inhibitor concentration varied from 0 to 10 µM. FAM fluorescence was measured in a Biotek Neo plate reader over the course of 45 minutes. A control containing GlaI in the absence of DNMT1 was subtracted from each assay condition. Corrected assay traces were fitted in Prism and percent activity was determined by comparing to a DMSO containing control. IC50 values were determined by fitting the percent activity data using a unity Hill slope in Prism.

DNMT1 = details: cited from earlier work
[3] = test system: MCF-7 breast cancer cells; details: cited from earlier work
[4] = test system: Rgs6−/− mouse embryonic fibroblasts; design: method as in PMID 23995786; details: murine Rgs6−/− mouse embryonic fibroblasts; cited from earlier work

Row | SMILES | vo (initial velocity) [1] | Percent Activity [1] | Normalized RFU [1] | RFU [1] | RFU (ethidium bromide fluorescence) (calf thymus DNA) | levels of DNA methylation (HepG2 cells) | IC50 [2] | potency relative to alizarin (cmpd 26) ([2]; more potent than alizarin) | mechanism of inhibition (DNMT1) | expression of methylation-silenced genes [3] | DNMT1-dependent oncogenic transformation and apoptosis [4]
1 | Oc1cc(Cl)ccc1Oc1ccc(Cl)cc1Cl [Cmpd 13, triclosan] | 15 ± 2 RFU/min | 27% | 19 | 779 ± 42 RFU | 2406 ± 5 RFU | reduced the levels of DNA methylation | – | – | – | – | –
2 | O=C(O)c1cc(O)c2c(c1)[C@@H]([C@H]1c3cc(C(=O)O)cc(O)c3C(=O)c3c(O[C@H]4O[C@H](CO)[C@@H](O)[C@H](O)[C@H]4O)cccc31)c1cccc(O[C@H]3O[C@H](CO)[C@@H](O)[C@H](O)[C@H]3O)c1C2=O [Cmpd 22] | – | 0% | 7 | 621 ± 12 RFU | 2415 ± 150 RFU | – | 470 nM | – | – | – | –
3 | CC1/C=C/C=C/C=C/C=C/C=C/C=C/C=C/C(O[C@@H]2O[C@H](C)[C@H](O)[C@@H](O)[C@@H]2N)CC(O)C(C(=O)O)C(O)CC(=O)CC(O)CC(O)CC(O)CC(=O)CCCC(=O)CC(=O)OC1C(C)CC(C)C(O)CC(=O)c1ccc(N)cc1 (some centres unmarked) [Cmpd 24] | 5 ± 1 RFU/min | 9% | 11 | 677 ± 60 RFU | 2389 ± 64 RFU | – | 400 nM | – | – | – | –
4 | O=C1c2ccccc2C(=O)c2c1ccc(O)c2O [Cmpd 26, alizarin] | 27 ± 2 RFU/min | 49% | 37 | 1024 ± 110 RFU | 2364 ± 30 RFU | – | – | – | – | – | –
5 | CSc1nc2cc(Cl)c(Oc3cccc(Cl)c3Cl)cc2[nH]1 [Cmpd 29, triclabendazole] | 20 ± 2 RFU/min | 36% | 27 | 889 ± 20 RFU | 2500 ± 144 RFU | – | – | – | – | – | –
6 | O=c1c(O)c(-c2ccc(O)c(O)c2)oc2c(O)c(O)cc(O)c12 [Cmpd 33] | 25 ± 3 RFU/min | 45% | 46 | 1145 ± 147 RFU | 2524 ± 45 RFU | – | – | – | – | – | –
7 | O=C(O)c1cc(O)c2c(c1)[C@@H]([C@@H]1c3cc(C(=O)O)cc(O)c3C(=O)c3c(O[C@H]4O[C@H](CO)[C@@H](O)[C@H](O)[C@H]4O)cccc31)c1cccc(O[C@H]3O[C@H](CO)[C@@H](O)[C@H](O)[C@H]3O)c1C2=O [Cmpd 36] | – | 0% | 5 | 591 ± 41 RFU | 2309 ± 60 RFU | – | – | – | – | – | –
8 | CC(=O)NCCc1ccc(O)c(-c2c(O)c(O)c3c(c2O)C(=O)c2c(cc(O)c(C(=O)O)c2C(=O)O)C3=O)c1 [Cmpd 40, Laccaic acid A] | 6 ± 1 RFU/min | 11% | 5 | 602 ± 4 RFU | 2311 ± 148 RFU | – | – | ~5 fold | DNA-competitive inhibitor | reactivates expression of a set of methylation-silenced genes | reverses DNMT1-dependent oncogenic transformation and apoptosis
9 | O=C(O)C(S)C(S)C(=O)O (centres unmarked) [Cmpd 51] | 5 ± 1 RFU/min | 9% | 6 | 612 ± 55 RFU | 2525 ± 200 RFU | – | – | – | – | – | –
